Source: patent US8841233B2, “Herbicidal compositions comprising 4-amino-3-chloro-5-fluoro-6-(4-chloro-2-fluoro-3-methoxyphenyl) pyridine-2-carboxylic acid or a derivative thereof and 4-hydroxyphenyl-pyruvate dioxygenase (HPPD) inhibitors” (Dow Agrosciences LLC, priority 2012, dated 2014)

Experiments:
ECHOR = experiment: In-water applied weed control, transplanted paddy rice, greenhouse (Example II); format: in vivo, Echinochloa oryzoides (Ard.) Fritsch
Experimental: (§1) Evaluation of in-Water Applied Herbicidal Mixtures for Weed Control in Transplanted Paddy Rice
(§2) Weed seeds or nutlets of the desired test plant species were planted in puddled soil (mud) prepared by mixing a shredded, non-sterilized mineral soil (50.5 percent silt, 25.5 percent clay, and 24 percent sand, with a pH of about 7.6 and an organic matter content of about 2.9 percent) and water at a 1:1 volumetric ratio. The prepared mud was dispensed in 365 mL aliquots into 16-ounce (oz.) non-perforated plastic pots with a surface area of 86.59 square centimeters (cm^2) leaving a headspace of 3 centimeters (cm) in each pot. Mud was allowed to dry overnight prior to planting or transplanting. Rice seeds were planted in Sun Gro MetroMix® 306 planting mixture, which typically has a pH of 6.0 to 6.8 and an organic matter content of about 30 percent, in plastic plug trays. Seedlings at the second or third leaf stage of growth were transplanted into 840 mL of mud contained in 32-oz. non-perforated plastic pots with a surface area of 86.59 cm^2 4 days prior to herbicide application. The paddy was created by filling the headspace of the pots with 2.5 to 3 cm of water. When required to ensure good germination and healthy plants, a fungicide treatment and/or other chemical or physical treatment was applied. The plants were grown for 4-22 days in a greenhouse with an approximate 14 h photoperiod which was maintained at about 29′C during the day and 26° C. during the night. Nutrients were added as Osmocote® (19:6:12, N:P:K+ minor nutrients) at 2 g per 16-oz. pot and 4 g per 32-oz. pot. Water was added on a regular basis to maintain the paddy flood, and supplemental lighting was provided with overhead metal halide 1000-Watt lamps as necessary. The plants were employed for testing when they reached the first through fourth true leaf stage.
(§3) Treatments consisted of the acid or esters of 4-amino-3-chloro-5-fluoro-6-(4-chloro-2-fluoro-3-methoxy-phenyl)pyridine-2-carboxylic acid (compound A) each formulated as an SC (suspension concentrate) and various herbicidal components alone and in combination. Forms of compound A were applied on an acid equivalent basis.
(§4) Other herbicidal components were applied on an active ingredient basis and included 4-hydroxyphenyl pyruvate dioxygenase (HPPD)-inhibiting herbicides mesotrione formulated as Callisto®, sulcotrione formulated as Mikado®, pyrazolynate formulated as Sunbird® 10% GR, and benzobicyclon formulated as Benzobicyclon 3.5% or technical material.
(§5) Treatment requirements for each compound or herbicidal component were calculated based upon the rates being tested, the concentration of active ingredient or acid equivalent in the formulation, an application volume of 2 mL per component per pot, and an application area of 86.59 cm^2 per pot.
(§6) For formulated compounds, a measured amount was placed in an individual 100 or 200 mL glass vial and was dissolved in a volume of 1.25% (v/v) Agri-Dex® crop oil concentrate to obtain application solutions.
(§7) For technical grade compounds, a weighed amount was placed in an individual 100 to 200 mL glass vial and was dissolved in a volume of acetone to obtain concentrated stock solutions. […] The concentrated stock solutions obtained were diluted with an equivalent volume of an aqueous mixture containing 2.5% (v/v) crop oil concentrate so that the final application solutions contained 1.25% (v/v) crop oil concentrate.
(§8) Applications were made by injecting with a pipetter appropriate amounts of the application solutions, individually and sequentially, into the aqueous layer of the paddy. Control plants were treated in the same manner with the solvent blank. Applications were made so that all treated plant material received the same concentrations of acetone and crop oil concentrate.
(§9) The treated plants and control plants were placed in a greenhouse as described above and water was added as needed to maintain a paddy flood. […]

ECHCG [1] = experiment: Post-emergence foliar-applied weed control, greenhouse (Example I); format: in vivo, Echinochloa crusgalli (L.) Beauv.
Text: (§10) Evaluation of Post-emergence Foliar-Applied Herbicidal Mixtures for Weed Control in Direct Seeded Rice
(§11) Seeds or nutlets of the desired test plant species were planted in a soil matrix prepared by mixing a loam or sandy loam soil (e.g., 28.6 percent silt, 18.8 percent clay, and 52.6 percent sand, with a pH of about 5.8 and an organic matter content of about 1.8 percent) and calcareous grit in an 80 to 20 ratio. The soil matrix was contained in plastic pots with a volume of 1 quart and a surface area of 83.6 square centimeters (cm^2). When required to ensure good germination and healthy plants, a fungicide treatment and/or other chemical or physical treatment was applied. The plants were grown for 8-22 days in a greenhouse with an approximate 14 h photoperiod which was maintained at about 29° C. during the day and 26° C. during the night. Nutrients (Peters Excel® 15-5-15 5-Ca 2-Mg and iron chelate) were applied in the irrigation solution as needed and water was added on a regular basis. Supplemental lighting was provided with overhead metal halide 1000-Watt lamps as necessary. The plants were employed for testing when they reached the first through fourth true leaf stage.
as §3, with “(Compound A),” for “(compound A)”, “concentrate),” for “concentrate)”, “Compound” for “compound”
as §4, with “3.5%.” for “3.5% or technical material.”
(§12) Treatment requirements were calculated based upon the rates being tested, the concentration of active ingredient or acid equivalent in the formulation, and a 12 mL application volume at a rate of 187 L/ha.
(§13) For treatments comprised of formulated compounds, measured amounts of compounds were placed individually in 25 mL glass vials and diluted in a volume of 1.25% (v/v) Agri-Dex® crop oil concentrated to obtain 12× stock solutions. […] Application solutions were prepared by adding an appropriate amount of each stock solution (e.g., 1 mL) and diluted to the appropriate final concentrations with the addition of 10 mL of an aqueous mixture of 1.25% (v/v) crop oil concentrate so that the final spray solutions contained 1.25+/−0.05% (v/v) crop oil concentrate.
(§14) For treatments comprised of formulated and technical compounds, weighed amounts of the technical materials were placed individually in 25 mL glass vials and dissolved in a volume of 97:3 v/v acetone/DMSO to obtain 12× stock solutions, and measured amounts of the formulated compounds were placed individually in 25 mL glass vials and diluted in a volume of 1.5% (v/v) crop oil concentrate or water to obtain 12× stock solutions. […] Application solutions were prepared by adding an appropriate amount of each stock solution (e.g., 1 mL) and diluted to the appropriate final concentrations with the addition of an appropriate amount of an aqueous mixture of 1.5% (v/v) crop oil concentrate so that the final spray solutions contained 1.25% (v/v) crop oil concentrate. As required, additional water and/or 97:3 v/v acetone/DMSO was added to individual application solutions so that the final acetone and DMSO concentrations of the application solutions being compared were 8.1% and 0.25%, respectively.
(§15) All stock solutions and applications solutions were visually inspected for compound compatibility prior to application. Spray solutions were applied to the plant material with an overhead Mandel track sprayer equipped with a 8002E nozzles calibrated to deliver 187 L/ha over an application area of 0.503 m^2 at a spray height of 18 to 20 inches (46 to 50 cm) above average plant canopy height. […]

DIGSA = experiment: as above; format: in vivo, Digitaria sanguinalis (L.) Scop.; details: 140 gaiha
Text: as §10, §11
as §3, with “(Compound A),” for “(compound A)”, “concentrate),” for “concentrate)”, “Compound” for “compound”
as §4, with “3.5%.” for “3.5% or technical material.”
as §12, §13, §14, §15

FIMMI = experiment: In-water applied weed control, transplanted paddy rice, greenhouse (Example II); format: in vivo, Fimbristylis miliacea (L.) Vahl; details: 35 gai/ha
Experimental: as §1, §2, §3, §4, §5, §6, §7, §8, §9

IPOHE = experiment: Post-emergence foliar-applied weed control, greenhouse (Example I); format: in vivo, Ipomoea hederacea Jacq.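 Note: visual score 0 no injury to 100 complete kill versus untreated plants.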
Text: as §10, §11
as §3, with “(Compound A),” for “(compound A)”, “concentrate),” for “concentrate)”, “Compound” for “compound”
as §4, with “3.5%.” for “3.5% or technical material.”
as §12, §13, §14, §15

ECHCG [2] = experiment: In-water applied weed control, transplanted paddy rice, greenhouse (Example II); format: in vivo, Echinochloa crusgalli (L.) Beauv.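 Note: visual score 0 no injury to 100 complete kill versus untreated plants.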
Experimental: as §1, §2, §3, §4, §5, §6, §7, §8, §9

ECHCO = experiment: Post-emergence foliar-applied weed control, greenhouse (Example I); format: in vivo, Echinochloa colona (L.) Link
Text: as §10, §11
as §3, with “(Compound A),” for “(compound A)”, “concentrate),” for “concentrate)”, “Compound” for “compound”
as §4, with “3.5%.” for “3.5% or technical material.”
as §12, §13, §14, §15

BRAPP = experiment: as above; format: in vivo
Text: as §10, §11
as §3, with “(Compound A),” for “(compound A)”, “concentrate),” for “concentrate)”, “Compound” for “compound”
as §4, with “3.5%.” for “3.5% or technical material.”
as §12, §13, §14, §15

SCPMA = experiment: In-water applied weed control, transplanted paddy rice, greenhouse (Example II); format: in vivo; details: 35 gai/ha
Experimental: as §1, §2, §3, §4, §5, §6, §7, §8, §9

CYPIR = experiment: Post-emergence foliar-applied weed control, greenhouse (Example I); format: in vivo, Cyperus iria L.
Text: as §10, §11
as §3, with “(Compound A),” for “(compound A)”, “concentrate),” for “concentrate)”, “Compound” for “compound”
as §4, with “3.5%.” for “3.5% or technical material.”
as §12, §13, §14, §15

SCPJU = experiment: as above; format: in vivo, Schoenoplectus juncoides (Roxb.) Palla
Text: as §10, §11
as §3, with “(Compound A),” for “(compound A)”, “concentrate),” for “concentrate)”, “Compound” for “compound”
as §4, with “3.5%.” for “3.5% or technical material.”
as §12, §13, §14, §15

CCCCOC(=O)c1nc(-c2ccc(Cl)c(OC)c2F)c(F)c(N)c1Cl [Compound A n-Butyl Ester]
Visual Weed Control (%) -20 DAA ECHOR Obs (ECHOR; 35 gae/ha): 35% | Visual Weed Control (%) -20 DAA ECHOR Obs (ECHOR; 70 gae/ha): 40% | Visual Weed Control (%) - 21 DAA ECHCG Obs (ECHCG [1]; 17.5 gae/ha): 78% | Visual Weed Control (%) - 21 DAA ECHCG Obs (ECHCG [1]; 35 gae/ha): 93%

CS(=O)(=O)c1ccc(C(=O)C2C(=O)CCCC2=O)c([N+](=O)[O-])c1 [Mesotrione, 2-[4-(methylsulfonyl)-2-nitrobenzoyl]-1,3-cyclohexanedione, reference compound]
Visual Weed Control (%) - 20 DAA DIGSA Obs (DIGSA): 58% | Visual Weed Control (%) - 20 DAA ECHOR Obs (ECHOR; 140 gaiha): 80% | Visual Weed Control (%) -20 DAA ECHOR Obs (ECHOR; 140 gaiha): 80% | Visual Weed Control (%) - 21 DAA FIMMI Obs (FIMMI): 78% | Visual Weed Control (%) - 20 DAA IPOHE Obs (IPOHE; 35 gai/ha): 25% | Visual Weed Control (%) - 20 DAA IPOHE Obs (IPOHE; 70 gai/ha): 50% | Visual Weed Control (%) - 20 DAA ECHCG Obs (ECHCG [2]; 35 gai/ha): 10% | Visual Weed Control (%) - 20 DAA ECHCG Obs (ECHCG [2]; 70 gai/ha): 25% | Visual Weed Control (%) - 20 DAA ECHCO Obs (ECHCO; 17.5 gai/ha): 0% | Visual Weed Control (%) - 20 DAA ECHCO Obs (ECHCO; 35 gai/ha): 0% | Visual Weed Control (%) - 20 DAA ECHCO Obs (ECHCO; 70 gai/ha): 0% | Visual Weed Control (%) - 20 DAA BRAPP Obs (BRAPP; 17.5 gai/ha): 0% | Visual Weed Control (%) - 20 DAA BRAPP Obs (BRAPP; 35 gai/ha): 0% | Visual Weed Control (%) - 21 DAA SCPMA Obs (SCPMA): 80% | Visual Weed Control (%) - 20 DAA CYPIR Obs (CYPIR; 17.5 gai/ha): 0% | Visual Weed Control (%) - 20 DAA CYPIR Obs (CYPIR; 35 gai/ha): 50% | Visual Weed Control (%) - 20 DAA SCPJU Obs (SCPJU; 17.5 gai/ha): 50% | Visual Weed Control (%) - 20 DAA SCPJU Obs (SCPJU; 35 gai/ha): 80%
